Marks after values point to notes of the source that are not given here.
Tests used:
[1] = system: NAFLD model mice (obesity and fatty liver models induced by a high-fat diet); experiment: Therapeutic effects on obesity and fatty liver (NAFLD) models induced by a high-fat diet; format: in vivo, C57 mice; conditions: for serum FFA content / serum TC content / hepatic TG content: fatty liver model mice, total 20 mg/kg intragastric once a day for 12 weeks, x±s; for serum FFA content / serum TC content: high-fat diet 12 weeks; for hepatic TG content: liver homogenate supernatant
Method: (§1) Notes: Statistical analysis is conducted by the GraphPad Prism 8.0 statistical software, and statistical analysis results are analyzed by t-Test. Compared with a model group, *P<0.05 indicates a statistically-significant difference between the groups: **P<0.01, […], and ****P<0.0001.
160 SPF-grade male C57 mice at 8 weeks to 9 weeks were adaptively raised for one week, and then 140 obese mice with a consistent body weight were selected and evenly divided into 14 groups with 10 mice per group, including a model group (M group), a forskolin group (F group), an isoforskolin group (IF group), an asiatic acid group (AA group), an asiaticoside group (AS group), an OA group (OA group), a betulinic acid group (BA group), a forskolin+asiatic acid combined administration group (F+AA group), a forskolin+asiaticoside combined administration group (F+AS group), forskolin+OA combined administration groups (low, medium, and high) (F+OA-1:4, 1:1, and 4:1 groups), a forskolin+betulinic acid combined administration group (F+BA group), and an isoforskolin+OA combined administration group (IF+OA group). The mice were fed by a high-fat diet (including 35% of fat, 26% of carbohydrates, and 26% of proteins) continuously for 12 weeks to establish obesity and fatty liver models, and during the modeling, a drug was intragastrically administered continuously for 12 weeks. The experimental animals were raised in ordinary mouse cages in an environment with a room temperature of 24±2° C., a humidity of 40% to 60%, and a 12 h light/12 h dark cycle.
Administration mode: A drug was prepared with a 0.5% CMC-Na solution as a solvent into a suspension, and the suspension was intragastrically administered once a day continuously for 12 weeks.
The mice were administered with a drug continuously for 12 weeks, and after the last administration, the mice were fasted without water deprivation for 12 h; a body weight of each mouse was measured, eyeballs were removed, blood was collected, and a liver was taken out and weighed; a part of the liver tissue was stored in 4% paraformaldehyde (PFA), and another part of the liver tissue was stored in liquid nitrogen; and inguinal fat was collected from a right thigh of each mouse, weighed, and stored in liquid nitrogen.
A blood sample was allowed to stand in a 4° C. refrigerator for 4 h and then centrifuged at 3,500 rpm for 10 min to 15 min; and a resulting supernatant was collected and tested by a blood bio-chemical analyzer to determine the FFA and TC levels in serum. The liver tissue stored in 4% PFA was frozen and sectioned, and then stained with oil red O to obtain slide specimens. The liver tissue stored in liquid nitrogen was homogenized and then centrifuged, and a resulting supernatant was collected and then tested by a kit to determine a TG content.

[2] = system: chronic liver fibrosis model mice induced by CCl4; experiment: Therapeutic effects on chronic liver fibrosis model induced by CCl4; format: in vivo, C57BL/6 mice; conditions: total 20 mg/kg intragastric once a day for 8 weeks, x±s
Method: as §1
140 C57 mice were selected and evenly divided into 14 groups with 10 mice per group, including a model group (M group), a forskolin group (F group), an isoforskolin group (IF group), an asiatic acid group (AA group), an asiaticoside group (AS group), an OA group (OA group), a betulinic acid group (BA group), a forskolin+asiatic acid combined administration group (F+AA group), a forskolin+asiaticoside combined administration group (F+AS group), forskolin+OA combined administration groups (low, medium, and high) (F+OA-1:4, 1:1, and 4:1 groups), a forskolin+betulinic acid combined administration group (F+BA group), and an isoforskolin+OA combined administration group (IF+OA group). Every Thursday and Sunday, all mice each were intraperitoneally injected with a 5% carbon tetrachloride (CCl4)-containing olive oil solution continuously for 8 weeks at an injection volume of 20 mL/kg to obtain a liver fibrosis model caused by chronic liver damage.
Administration mode: A drug was prepared with a 0.5% CMC-Na solution as a solvent into a suspension, and the suspension was intragastrically administered once a day continuously for 8 weeks.
The mice were administered with a drug continuously for 8 weeks, and after the last administration, the mice were fasted without water deprivation for 12 h; a body weight of each mouse was measured, eyeballs were removed, blood was collected, and a liver was taken out and weighed; and a part of the liver tissue was stored in 4% PFA, and another part of the liver tissue was stored in liquid nitrogen.
A blood sample was allowed to stand in a 4° C. refrigerator for 4 h and then centrifuged at 3,500 rpm for 10 min to 15 min; and a resulting supernatant was collected and tested by a kit to determine AST and ALT levels. The liver tissue stored in liquid nitrogen was homogenized and then centrifuged, and a resulting supernatant was collected and then tested by an enzyme-linked immunosorbent assay (ELISA) kit to determine a PCIII content. The liver tissue stored in 4% PFA was dehydrated, fixed, sectioned, and stained to obtain H&E-stained and Sirius red-stained slide specimens.

Row | Compound | serum FFA content [1] | serum TC content [1] | hepatic TG content [1] | serum ALT content [2] | serum AST content [2] | body weight increase (FIG. 1), in words ([1]; NAFLD model mice, total 20 mg/kg intragastric daily, 12 weeks)
1 | C[C@H]1[C@H](C)CC[C@]2(C(=O)O)CC[C@]3(C)C(=CC[C@@H]4[C@@]5(C)C[C@@H](O)[C@H](O)[C@@](C)(CO)[C@@H]5CC[C@]43C)[C@H]12 [AA, Asiatic acid] | 1.286 ± 0.143 mmol/L | 7.26 ± 0.74 mmol/L | 1.17 ± 0.12 mmol/L | 815 ± 53* U/L | 399 ± 22* U/L | –
2 | C=C(C)[C@@H]1CC[C@]2(C(=O)O)CC[C@]3(C)[C@H](CC[C@@H]4[C@@]5(C)CC[C@H](O)C(C)(C)[C@@H]5CC[C@]43C)[C@@H]12 [BA, Betulinic acid] | 1.245 ± 0.201 mmol/L | 7.02 ± 0.63 mmol/L | 1.10 ± 0.08 mmol/L | 849 ± 34 U/L | 422 ± 45* U/L | –
3 | CC1(C)CC[C@]2(C(=O)O)CC[C@]3(C)C(=CC[C@@H]4[C@@]5(C)CC[C@H](O)C(C)(C)[C@@H]5CC[C@]43C)[C@@H]2C1 [OA, Oleanolic acid] | 1.182 ± 0.113* mmol/L | 6.84 ± 0.54* mmol/L | 1.03 ± 0.09* mmol/L | 888 ± 53 U/L | 436 ± 51 U/L | –
4 | Asiaticoside | 1.238 ± 0.186* mmol/L | 7.09 ± 0.34 mmol/L | 1.18 ± 0.08 mmol/L | 882 ± 25 U/L | 406 ± 63* U/L | –
5 | Forskolin | 1.324 ± 0.124 mmol/L | 7.44 ± 0.86 mmol/L | 1.01 ± 0.07* mmol/L | 922 ± 32 U/L | 447 ± 31 U/L | can inhibit the increase of a body weight of mice similarly

Source: patent publication US20240148686A1, “PHARMACEUTICAL COMPOSITION OF FORSKOLIN-ISOFORSKOLIN AND PENTACYCLIC TRITERPENOID COMPOUND, AND APPLICATION THEREOF” (CHINA PHARMACEUTICAL UNIVERSITY, priority 2021, published 2024)
